The results in this text go back to patent publication US4599334A, “7-(3-aryl-1-piperazinyl)- and 7-(3-cyclohexyl-1-piperazinyl)-3-quinolonecarboxylic acid antibacterials” (Bayer Aktiengesellschaft, priority 1984, dated 1986).

≈ marks a conversion by molar mass, not a printed value.

What all share (assay type): cell-based
What all share (conditions): agar dilution test/isosensitest agar, unit assumed

For assay [1], the system named is Staphylococcus FK 422. Description: MIC agar dilution test, Staphylococcus FK 422. The source says:
(§1) It has already been disclosed in J. Med. Chem. 23, 1358 (1980) that 1-ethyl-6-fluoro-1,4-dihydro-4-oxo-7-(1-piperazinyl)-3-quinolinecarboxylicacid (norfloxacin) has antibacterial properties.
(§2) MIC values (agar dilution test/isosensitest agar)

The test system of assay [2] is Serratia 16040. Description: MIC agar dilution test, Serratia 16040.
Excerpt: as §1, §2

The subject of assay [3] is Staphylococcus 133. Description: MIC agar dilution test, Staphylococcus 133.
Excerpt: as §1, §2

In assay [4] the test system is Staphylococcus 1756. Description: MIC agar dilution test, Staphylococcus 1756.
Excerpt: as §1, §2

Assay [5] concerns E. coli Neumann. The assay is described as follows: MIC agar dilution test, E. coli Neumann.
Excerpt: as §1, §2

Assay [6] relates to Klebsiella 57 USA. Description: MIC agar dilution test, Klebsiella 57 USA.
Excerpt: as §1, §2

In assay [7] the test system is Providencia 12052. Description: MIC agar dilution test, Providencia 12052.
Excerpt: as §1, §2

The subject of assay [8] is Klebsiella 8085. Description: MIC agar dilution test, Klebsiella 8085.
Excerpt: as §1, §2

The test system of assay [9] is Klebsiella 6179. The assay is described as follows: MIC agar dilution test, Klebsiella 6179.
Excerpt: as §1, §2

Consider `O=C(O)c1cn(C2CC2)c2cc(N3CCNC(c4cccs4)C3)c(F)cc2c1=O` (stereo not drawn) [Example 12], for which the MIC values in assay [1] is 0.06 µg/mL (≈ 0.145 µM); in assay [2], 16 µg/mL (≈ 38.7 µM); in assay [3], 0.03 µg/mL (≈ 0.0726 µM); in assay [4] it was 0.03 µg/mL (≈ 0.0726 µM); in [5], 0.015 µg/mL (≈ 0.0363 µM); in assay [6], 0.5 µg/mL (≈ 1.21 µM). Besides, the figures for the MIC values in [7], in assay [8] and in assay [9] were 8 µg/mL (≈ 19.3 µM), 0.015 µg/mL (≈ 0.0363 µM) and 0.125 µg/mL (≈ 0.302 µM), respectively.

On to `O=C(O)c1cn(C2CC2)c2cc(N3CCNC(c4ccc(N5CCCCC5)cc4)C3)c(F)cc2c1=O` (stereo not drawn) [Example 8], for which the MIC values in assay [1] amounted to 0.015 µg/mL (≈ 0.0306 µM); in assay [3], 0.03 µg/mL (≈ 0.0612 µM); in assay [4], 0.015 µg/mL (≈ 0.0306 µM).

In the case of `O=C(O)c1cn(C2CC2)c2cc(N3CCNC(c4cccc([N+](=O)[O-])c4)C3)c(F)cc2c1=O` (stereo not drawn) [Example 11], the MIC values in assay [1] is 0.125 µg/mL (≈ 0.276 µM); in [3] it was 0.06 µg/mL (≈ 0.133 µM); in assay [4], 0.06 µg/mL (≈ 0.133 µM).

As to `O=C(O)c1cn(C2CC2)c2cc(N3CCNC(c4ccc(Cl)cc4)C3)c(F)cc2c1=O` (stereo not drawn) [Example 3], the MIC values in assay [1] was determined as 0.06 µg/mL (≈ 0.136 µM); in assay [2], 16 µg/mL (≈ 36.2 µM); in assay [3], 0.06 µg/mL (≈ 0.136 µM); in assay [4], 0.06 µg/mL (≈ 0.136 µM); in assay [5] it was 0.03 µg/mL (≈ 0.0679 µM); in assay [6] it was 0.5 µg/mL (≈ 1.13 µM). Also, the MIC values in [7] stood at 8 µg/mL (≈ 18.1 µM); in assay [8], 0.03 µg/mL (≈ 0.0679 µM); in [9], 0.125 µg/mL (≈ 0.283 µM).

With `Br.O=C(O)c1cn(C2CC2)c2cc(N3CCNC(c4ccc(O)cc4)C3)c(F)cc2c1=O` (stereo not drawn) [Example 14, 1-cyclopropyl-6-fluoro-1,4-dihydro-7-[3-(4-hydroxyphenyl)-1-piperazinyl]-4-oxo-3-quinolinecarboxylic acid hydrobromide], the MIC values stood at 0.125 µg/mL in assay [1]; 8 µg/mL in [2]; 0.125 µg/mL in [3]; 0.5 µg/mL in assay [4]; 0.015 µg/mL in [5]; 0.125 µg/mL in [6]. The MIC values came out at 32 µg/mL in assay [7], 0.03 µg/mL in [8] and 0.25 µg/mL in [9].

Regarding `COc1ccc(C2CN(c3cc4c(cc3F)c(=O)c(C(=O)O)cn4C3CC3)CCN2)cc1` (stereo not drawn) [Example 5], the MIC values in [1] was 0.06 µg/mL (≈ 0.137 µM); in [2] it was 16 µg/mL (≈ 36.6 µM); in assay [3] it was 0.06 µg/mL (≈ 0.137 µM); in assay [4] it was 0.03 µg/mL (≈ 0.0686 µM); in [5], 0.03 µg/mL (≈ 0.0686 µM); in [6], 0.5 µg/mL (≈ 1.14 µM). For the same compound, the MIC values in assay [7] turned out to be 8 µg/mL (≈ 18.3 µM); in [8], 0.03 µg/mL (≈ 0.0686 µM); in assay [9] it was 0.125 µg/mL (≈ 0.286 µM).

Regarding `CCn1cc(C(=O)O)c(=O)c2cc(F)c(N3CCNCC3)cc21` [Norfloxacin, 1-ethyl-6-fluoro-1,4-dihydro-4-oxo-7-(1-piperazinyl)-3-quinolinecarboxylicacid, reference compound], the MIC values in assay [1] is 2 µg/mL (≈ 6.26 µM); in [2], 32 µg/mL (≈ 100 µM); in assay [3] it was 1 µg/mL (≈ 3.13 µM); in [4], 1 µg/mL (≈ 3.13 µM); in assay [5] it was 0.125 µg/mL (≈ 0.391 µM); in assay [6], 1 µg/mL (≈ 3.13 µM). Moreover, the MIC values in assay [7] came to 128 µg/mL (≈ 401 µM); in [8], 0.25 µg/mL (≈ 0.783 µM); in assay [9] it was 1 µg/mL (≈ 3.13 µM).

In the case of `O=C(O)c1cn(C2CC2)c2c(F)c(N3CCNC(c4ccccc4)C3)c(F)cc2c1=O` (stereo not drawn) [Example 16, 1-cyclopropyl-6,8-difluoro-1,4-dihydro-4-oxo-7-(3-phenyl-1-piperazinyl)-3-quinolinecarboxylic acid], the MIC values in assay [1] amounted to 0.015 µg/mL (≈ 0.0353 µM); in assay [2], 2 µg/mL (≈ 4.7 µM); in assay [3] it was 0.015 µg/mL (≈ 0.0353 µM); in assay [4], 0.015 µg/mL (≈ 0.0353 µM); in [5], 0.015 µg/mL (≈ 0.0353 µM); in assay [6] it was 0.125 µg/mL (≈ 0.294 µM). In addition, the MIC values in [7] was determined as 4 µg/mL (≈ 9.4 µM); in assay [8], 0.015 µg/mL (≈ 0.0353 µM); in assay [9], 0.015 µg/mL (≈ 0.0353 µM).

On to `O=C(O)c1cn(C2CC2)c2cc(N3CCNC(c4ccc(F)cc4)C3)c(F)cc2c1=O` (stereo not drawn) [Example 2], for which the MIC values in assay [1] was found to be 0.03 µg/mL (≈ 0.0705 µM); in assay [2], 16 µg/mL (≈ 37.6 µM); in assay [3] it was 0.06 µg/mL (≈ 0.141 µM); in [4], 0.03 µg/mL (≈ 0.0705 µM); in [5], 0.015 µg/mL (≈ 0.0353 µM); in assay [6], 0.25 µg/mL (≈ 0.588 µM). Further, the MIC values in [7] stood at 8 µg/mL (≈ 18.8 µM); in [8], 0.015 µg/mL (≈ 0.0353 µM); in [9] it was 0.06 µg/mL (≈ 0.141 µM).

With `O=C(O)c1cn(C2CC2)c2cc(N3CCNC(c4ccccc4)C3)c(F)cc2c1=O` (stereo not drawn) [Example 1, 1-cyclopropyl-6-fluoro-1,4-dihydro-4-oxo-7-(3-phenyl-1-piperazinyl)-3-quinolinecarboxylic acid], the MIC values worked out at 0.015 µg/mL (≈ 0.0368 µM) in assay [1]; 8 µg/mL (≈ 19.6 µM) in assay [2]; 0.015 µg/mL (≈ 0.0368 µM) in [3]; 0.015 µg/mL (≈ 0.0368 µM) in assay [4]; 0.015 µg/mL (≈ 0.0368 µM) in assay [5]; 0.06 µg/mL (≈ 0.147 µM) in assay [6]. Also, the MIC values in assay [7] is 4 µg/mL (≈ 9.82 µM); in [8], 0.015 µg/mL (≈ 0.0368 µM); in assay [9], 0.015 µg/mL (≈ 0.0368 µM).
